Series [1] is described as follows: Pharmacokinetics in rat plasma after oral administration of MO and SMO extract (UPLC-MS/MS). Particulars: for Cmax: male, Sprague-Dawley, rat, plasma, po, 40 g/kg; for Cmax / AUC (0-t) / AUC (0-∞) / CL/F / MRT (0-t) / T max / V/F / t1/2z: n = 6. It is filed as in vivo, Sprague-Dawley (SD) rats. As to the method: (§1) For LC-MS/MS analysis, data acquisition and instrument control were performed using MassLynx 4.1 software (Waters Corp., Milford, MA, USA). The analysis column was an Acquity UPLC HSS T3 column (100 mm × 2.1 mm, 1.8 μm, Waters) with a temperature of 40°C. The mobile phase was acetonitrile containing 0.1% formic acid (A) and 0.1% formic acid aqueous solution (B). The elution gradient was 0.00–0.50 min with 2% B; 0.51–5.00 min with 2%–30% B; and 5.01–7.00 min with 40% B. The flow rate was 0.2 mL/min.
(§2) The Waters triple quadruple mass spectrometer (Xevo TQD, Waters Corp., Milford, MA, USA) equipped with an electrospray ionization source (ESI) was used in negative ion mode. The desolvation gas was nitrogen with a flow rate of 500 L/h at a temperature of 250°C. All detected compounds were measured in multiple reaction monitoring (MRM) mode.
10 μL of IS working solution and 400 μL of methanol were added to 100 μL plasma. The solution was vortexed for 10 min and then centrifuged at 12,000 rpm for 5 min. The supernatant was shifted to another centrifugation tube and dried with nitrogen at 37°C. The residue was redissolved in 100 μL acetonitrile and centrifuged for 5 min at 12,000 rpm. Five microliters of supernatant was drawn and analyzed by UPLC-MS/MS.
The SD rats (6, male) were housed at 22 ± 2°C and fasted for 12 h with drinking water available ad libitum. MO and SMO ethanol extract were orally administered at a dose of 40 g/kg (equivalent to 6.44 and 3.95 mg/kg of monotropein, 0.088 and 0.091 mg/kg of rubiadin, and 0.174 and 0.178 mg/kg of rubiadin 1-methyl ether). Blood samples (0.5 mL) were collected from the venous plexus of the eye socket at 0.083, 0.25, 0.5, 1.0, 1.5, 2.0, 2.5, 4.0, 6.0, 12.0, and 24 h under anesthesia. Then, the blood samples were centrifuged at 4500 rpm for 10 min, and then the plasma was immediately transferred to new tubes and stored at −80°C until analysis. The pharmacokinetic parameters were calculated using DAS software (3.0 version, China Food and Drug Administration) based on noncompartmental method. All data were recorded as mean ± SD.

A short description of series [2]: Tissue distribution after oral administration of MO and SMO extract. Conditions: rat; 0.25, 1, 3 and 6 h after oral MO or SMO extract 40 g/kg. The series is classed as in vivo, SD rats. The protocol: as §1, §2
The whole tissue was cut into pieces and homogenized with ice-cold 0.9% (m/v) sodium chloride solution (1 : 9, w/v). Using 50 μL of tissue homogenate, the tissue samples were prepared in the same way as the plasma samples.
MO and SMO ethanol extract (40 g/kg) was orally administered to SD rats (weight, 180–220 g, n = 6), at 0.25, 1, 3, and 6 h, respectively. […]

From PMC7036132, “Effects of the Salt-Processing Method on the Pharmacokinetics and Tissue Distribution of Orally Administered Morinda officinalis How. Extract” (Journal of Analytical Methods in Chemistry, 2020) come the findings set out here.

What is called Cmax is the maximum level reached in the sampled fluid or tissue.

“And” between values parts separate entries of the source, which are not always exact repeats. Identical values can stand only once.

As for `O=C(O)C1=CO[C@@H](O[C@@H]2O[C@H](CO)[C@@H](O)[C@H](O)[C@H]2O)[C@H]2[C@@H]1C=C[C@]2(O)CO` [Monotropein, monotropein], in series [1] (oral MO extract 40 g/kg), the Cmax worked out at 23.3 ± 0.764 ng/mL, the “AUC (0-t)” value is 44.22 ± 0.932 μg/L ∗ h, the “AUC (0-∞)” value worked out at 48.952 ± 1.559 μg/L ∗ h and the CL/F worked out at 0.818 ± 0.265 L/g/h. Also, in series [1] (oral MO extract 40 g/kg), the “MRT (0-t)” value was 3.863 ± 0.184 H; the T max is 1.0 H and 1.0 ± 0.00 H; the V/F amounted to 14.447 ± 2.143 L/g; the t1/2z is 12.291 ± 2.09 H. Besides, in series [1] (oral SMO extract 40 g/kg), the Cmax was found to be 23.3 ± 0.676 ng/mL, the “AUC (0-t)” value is given as 26.941 ± 1.423 μg/L ∗ h, the “AUC (0-∞)” value is given as 27.045 ± 1.338 μg/L ∗ h and the CL/F was determined as 1.482 ± 0.750 L/g/h. Further, in series [1] (oral SMO extract 40 g/kg), the “MRT (0-t)” value is 1.686 ± 0.025 H; the T max is 0.5 H and 0.5 ± 0.00 H; the V/F is 12.239 ± 9.027 L/g; the t1/2z came to 5.611 ± 3.958 H. Further, the “Shape of plasma concentration-time curve” value in series [1] (oral MO and SMO extract 40 g/kg) is recorded as “obvious double-peak phenomenon”. For the same compound, the “Concentration in lung tissue” value in series [2] is “could not be quantified”.
